Reference: ChEMBL document CHEMBL4177563, “The medicinal chemistry of Chikungunya virus” (Bioorg Med Chem, 2017)

Legend:
[1] = Selectivity index, ratio of CC50 for African green monkey Vero cells to IC50 for Chikungunya virus KC969208; assay type: toxicity; conditions: read-out: Ratio CC50/IC50
Chikungunya virus [2] = assay: Antiviral activity against Chikungunya virus KC969208 infected in African green monkey Vero cells after 48 hrs by MTT dye-based assay; assay type: functional, organism-based
Chikungunya virus [3] = assay: Antiviral activity against Chikungunya virus 899 infected in African green monkey Vero A cells assessed as reduction in viral infectious progeny by end-point titration assay; assay type: functional, organism-based; conditions: Chikungunya virus, 899, Vero
Chikungunya virus [4] = assay: Antiviral activity against Chikungunya virus 899 infected in African green monkey Vero A cells by real-time qRT-PCR analysis; assay type: functional, organism-based; conditions: Chikungunya virus, 899, Vero
[5] = Cytotoxicity against African green monkey Vero A cells assessed as reduction in cell viability measured on day 5 post infection by MTS/PMS based microscopic analysis; conditions: chlorocebus sabaeus
Chikungunya virus [6] = assay: Antiviral activity against Chikungunya virus 899 infected in African green monkey Vero A cells assessed as inhibition of virus-induced cytopathogenic effect measured on day 5 post infection by MTS/PMS based microscopic analysis; assay type: functional, organism-based; conditions: Chikungunya virus, 899, Vero, 120 h
Chikungunya virus [7] = assay: Antiviral activity against Chikungunya virus C347 infected in African green monkey Vero cells assessed as inhibition of viral-induced cytopathic effect after 2 days by microscopic analysis; assay type: functional, organism-based; conditions: 48 h
[8] = Cytotoxicity against human Huh7.5 cells in presence of ATP by Celltiter-Glo assay; assay type: cell-based
Chikungunya virus [9] = assay: Antiviral activity against Chikungunya virus LR2006-OPY1 infected in BHK21 cells after 48 hrs by luciferase reporter gene assay; assay type: functional, organism-based; conditions: LR2006-OPY1, BHK-21, 48 h
Chikungunya virus [10] = assay: Antiviral activity against Chikungunya virus LR2006-OPY1 infected in human Huh7.5 cells after 48 hrs by luciferase reporter gene assay; assay type: functional, organism-based; conditions: LR2006-OPY1, Huh7.5, 48 h
Chikungunya virus [11] = assay: Antiviral activity against Chikungunya virus at 0.006 to 300 uM by cell based luciferase reporter gene assay relative to control; assay type: functional
[12] = Cytotoxicity against BHK21 cells in presence of ATP by Celltiter-Glo assay; assay type: cell-based, Mesocricetus auratus; conditions: hamster, BHK-21 cells
[13] = Selectivity index, ratio of CC50 for human Huh7.5 cells to EC50 for Chikungunya virus; assay type: toxicity; conditions: read-out: Ratio CC50/EC50
[14] = Selectivity index, ratio of CC50 for BHK21 cells to EC50 for Chikungunya virus; assay type: toxicity; conditions: hamster, BHK-21 cells; read-out: Ratio CC50/EC50
Chikungunya virus [15] = assay: Antiviral activity against Chikungunya virus infected in BHK21 cells assessed as reduction in plague formation at 1 uM after 24 hrs relative to control; assay type: functional; conditions: BHK-21, 24 h
Chikungunya virus [16] = assay: Antiviral activity against Chikungunya virus venturini isolate (Italy 2008) infected in African green monkey Vero-A cells assessed as inhibition of viral-induced cytopathic effect measured on day 7 post infection by MTS/PMS assay; assay type: functional, organism-based; conditions: 168 h
Chikungunya virus [17] = assay: Antiviral activity against Chikungunya virus LR2006-OPY1 infected in African green monkey Vero-A cells assessed as inhibition of viral-induced cytopathic effect measured on day 7 post infection by MTS/PMS assay; assay type: functional, organism-based; conditions: LR2006-OPY1, 168 h
Chikungunya virus [18] = assay: Antiviral activity against Chikungunya virus 899 infected in African green monkey Vero-A cells assessed as inhibition of viral-induced cytopathic effect measured on day 7 post infection by MTS/PMS assay; assay type: functional, organism-based; conditions: Chikungunya virus, 899, 168 h
Chikungunya virus [19] = assay: Antiviral activity against Chikungunya virus 899 infected in African green monkey Vero cells assessed as inhibition of virus-induced cytopathogenic effect measured on day 5 post infection by MTS/PMS based microscopic analysis; assay type: functional, organism-based; conditions: Chikungunya virus, 899, Vero, 120 h
Vero = assay: Cytotoxicity against African green monkey Vero cells assessed as reduction in cell viability measured on day 5 post dose by MTS/PMS based microscopic analysis; conditions: chlorocebus sabaeus
Chikungunya virus [20] = assay: Antiviral activity against Chikungunya virus isolate DRDE-06 infected in African green monkey Vero cells by neutral red dye uptake assay; assay type: functional, organism-based; conditions: isolate DRDE-06, Vero
[21] = Cytotoxicity against African green monkey Vero cells by neutral red dye uptake assay; assay type: cell-based; conditions: chlorocebus sabaeus
[22] = Selectivity index, ratio of CC50 for African green monkey Vero cells to IC50 for Chikungunya virus DRDE-06; assay type: toxicity; conditions: read-out: Ratio CC50/IC50
Chikungunya virus [23] = assay: Antiviral activity against Chikungunya virus 0810bTw infected in BHK-21 cells by RT-qPCR analysis; assay type: functional, organism-based
Chikungunya virus [24] = assay: Antiviral activity against Chikungunya virus infected in BHK-21 cells by RT-qPCR analysis; assay type: functional, organism-based
[25] = Selectivity index, ratio of CC50 for BHK-21 cells to EC50 for Chikungunya virus; assay type: toxicity; conditions: hamster, read-out: Ratio CC50/EC50
Chikungunya virus [26] = assay: Antiviral activity against Chikungunya virus infected in human U2OS cells by RT-qPCR analysis; assay type: functional, organism-based
[27] = Selectivity index, ratio of CC50 for human U2OS cells to EC50 for Chikungunya virus; assay type: toxicity; conditions: read-out: Ratio CC50/EC50
[28] = Selectivity index, ratio of CC50 for BHK-21 cells to EC50 for Chikungunya virus 0611aTw; assay type: toxicity; conditions: hamster, read-out: Ratio CC50/EC50
[29] = Cytotoxicity against BHK21 cells assessed as reduction in cell viability after 16 hrs by CCK-8 assay; assay type: cell-based, Mesocricetus auratus; conditions: hamster, BHK-21 cells
Chikungunya virus [30] = assay: Antiviral activity against Chikungunya virus 0611aTw infected in BHK-21 cells by RT-qPCR analysis; assay type: functional, organism-based
[31] = Cytotoxicity against human U2OS cells assessed as reduction in cell viability after 16 hrs by CCK-8 assay; assay type: cell-based
[32] = Selectivity index, ratio of CC50 for BHK-21 cells to EC50 for Chikungunya virus 0810bTw; assay type: toxicity; conditions: hamster, read-out: Ratio CC50/EC50
[33] = Cytotoxicity against African green monkey Vero cells assessed as reduction in cell viability after 4 days by MTT assay; assay type: cell-based; conditions: chlorocebus sabaeus
Chikungunya virus [34] = assay: Antiviral activity against Chikungunya virus KC969207 infected in African green monkey Vero cells after 48 hrs by MTT dye-based assay; assay type: functional, organism-based
[35] = Selectivity index, ratio of CC50 for African green monkey Vero cells to IC50 for Chikungunya virus KC969207; assay type: toxicity; conditions: read-out: Ratio CC50/IC50

## CCCCCCCCCCCCCCCCCOC(=O)c1ccccc1C(=O)O
[1]
  selectivity ratio: 4.66
Chikungunya virus [2]
  IC50: 76.5 µM

## CCCCCCCC(=O)O[C@H]1/C(=C/C(=O)OC)C[C@H]2C[C@H](COC)OC(=O)CCOc3ccccc3C(=O)OCC(C)(C)[C@]1(O)O2
Chikungunya virus [3]
  EC50: 4.1 µM
Chikungunya virus [4]
  EC50: 6 µM
[5]
  CC50 at 5 days: > 50 µM
Chikungunya virus [6]
  EC50: 7.5 µM

## CCCCCCCC(=O)O[C@H]1/C(=C/C(=O)OC)C[C@H]2C[C@H](CC(=O)OC)OC(=O)CCOc3ccc(-c4c(OC)cccc4OC)cc3C(=O)OCC(C)(C)[C@]1(O)O2
Chikungunya virus [3]
  EC50: 2 µM
Chikungunya virus [4]
  EC50: 2.1 µM
[5]
  CC50 at 5 days: > 50 µM
Chikungunya virus [6]
  EC50: 4 µM

## O=c1cnn([C@@H]2O[C@H](CO)[C@@H](O)[C@H]2O)c(=O)[nH]1 [6-AZAURIDINE]
Chikungunya virus [7]
  EC50: 0.82 µM

## COc1ccc2cc3[n+](cc2c1OC)CCc1cc2c(cc1-3)OCO2 [BERBERINE]
[8]
  CC50: > 100 µM
Chikungunya virus [9]
  EC50: 1.8 µM
Chikungunya virus [10]
  EC50: 1.9 µM
Chikungunya virus [11]
  Activity: >85%
[12]
  CC50: > 100 µM
[13]
  selectivity ratio: > 52.6
[14]
  selectivity ratio: > 55.6

## C[C@H]1O[C@@H](O[C@H]2CC[C@@]3(C)[C@H](CC[C@@H]4[C@@H]3C[C@@H](O)[C@]3(C)[C@@H](C5=CC(=O)OC5)CC[C@]43O)C2)C[C@H](O)[C@@H]1O[C@H]1C[C@H](O)[C@H](O[C@H]2C[C@H](O)[C@H](O[C@@H]3O[C@H](CO)[C@@H](O)[C@H](O)[C@H]3O)[C@@H](C)O2)[C@@H](C)O1 [DESLANOSIDE]
Chikungunya virus [15]
  inhibition at 1 µM: 38.7%

## NC(=O)c1nc(F)cnc1O [FAVIPIRAVIR]
Chikungunya virus [16]
  EC50: 16 µM
Chikungunya virus [17]
  EC50: 25 µM
Chikungunya virus [18]
  EC50: 25 µM

## CC1=C(/C=C/C(C)=C/C=C/C(C)=C/C(=O)Nc2ccc(O)cc2)C(C)(C)CCC1 [FENRETINIDE]
[8]
  CC50: 15.6 µM
Chikungunya virus [9]
  EC50: 3.1 µM
Chikungunya virus [10]
  EC50: 0.5 µM
Chikungunya virus [11]
  Activity: 65%
[12]
  CC50: 31.5 µM
[13]
  selectivity ratio: 29.9
[14]
  selectivity ratio: 10.3

## Cn1c2ccccc2c2c3c(c4c5ccccc5n(CCC#N)c4c21)CNC3=O [GO-6976]
Chikungunya virus [19]
  EC50: > 6 µM
Vero
  CC50: 6 µM

## COc1c(C)c2c(c(O)c1C/C=C(\C)CCC(=O)O)C(=O)OC2 [MYCOPHENOLIC ACID]
Chikungunya virus [20]
  IC50: 0.1 µM
[21]
  CC50: 30 µM
[22]
  selectivity ratio: 300

## O=C(Nc1ccc([N+](=O)[O-])cc1Cl)c1cc(Cl)ccc1O [NICLOSAMIDE]
Chikungunya virus [23]
  EC50: 0.9 µM
Chikungunya virus [24]
  EC50: 0.95 µM
[25]
  selectivity ratio: > 21
Chikungunya virus [26]
  EC50: 0.36 µM
[27]
  selectivity ratio: > 55.5
[28]
  selectivity ratio: > 23.5
[29]
  CC50 at 16 h: > 20 µM
Chikungunya virus [30]
  EC50: 0.85 µM
[31]
  CC50 at 16 h: > 20 µM
[32]
  selectivity ratio: > 22.2

## CC(=O)Oc1ccccc1C(=O)Nc1ncc([N+](=O)[O-])s1 [NITAZOXANIDE]
Chikungunya virus [23]
  EC50: 4.95 µM
Chikungunya virus [24]
  EC50: 2.96 µM
[25]
  selectivity ratio: 8.45
Chikungunya virus [26]
  EC50: 3.01 µM
[27]
  selectivity ratio: 8.31
[28]
  selectivity ratio: 12.8
[29]
  CC50 at 16 h: 25 µM
Chikungunya virus [30]
  EC50: 1.96 µM
[31]
  CC50 at 16 h: 25 µM
[32]
  selectivity ratio: 5.05

## NC(=O)c1ncn([C@@H]2O[C@H](CO)[C@@H](O)[C@H]2O)n1 [RIBAVIRIN]
[33]
  CC50 at 96 h: 1620 µM
Chikungunya virus [7]
  EC50: 341 µM
Chikungunya virus [34]
  IC50: 3.06 µM
[35]
  selectivity ratio: 529

## CN1CCN(c2nc(C3=C(c4c[nH]c5ccccc45)C(=O)NC3=O)c3ccccc3n2)CC1 [SOTRASTAURIN]
Chikungunya virus [19]
  EC50: > 66 µM
Vero
  CC50: 66 µM
